# Measurements reported in patent publication US20140158116A1, “INHIBITING TRPA1 FOR THE TREATMENT OF ASTHMA” (Cubist Pharmaceuticals, Inc., priority 2012, published 2014).
# Tests used:
# [1] = system: airway hyper-responsiveness to Carbachol; experiment: Sheep allergic asthma model, airway hyper-responsiveness (PC400) to Carbachol; type: in vivo; details: 24 hour post-challenge Carbachol
# Protocol: Compounds were tested in the sheep model of experimental asthma reported in Abraham W M, Asthma & Rhinitis, 2000: 1205-1227 incorporated herein by reference in its entirety.
# The unsedated sheep were restrained in a cart in the prone position with their heads immobilized. After topical anesthesia of the nasal passages with 2% lidocaine solution, a balloon catheter was advanced through one nostril into the lower esophagus. The sheep were intubated with a cuffed endotracheal tube through the other nostril. Pleural pressure was estimated with the esophageal balloon catheter. Lateral pressure in the trachea was measured with a sidehole catheter (inner dimension, 2.5 mm) advanced through and positioned distal to the tip of the endotracheal tube. Transpulmonary pressure, the difference between tracheal and pleural pressure, was measured with a differential pressure transducer catheter system. For the measurement of pulmonary resistance (RL), the proximal end of the endotracheal tube was connected to a pneumotachograph. […]
# Baseline concentration response curves to aerosol Carbachol were obtained 1 to 3 days before commencement of drug/vehicle treatment. […] Baseline values of pulmonary resistance (RL) were obtained within 30 minutes of treatment and then re-measured 30 minutes before antigen challenge. […]
# [2] = system: formalin-induced pain behavior; experiment: Formalin-induced pain behavior in vivo rodent model; design: species or system rat; details: vehicle 88.6
# From the text: The data shown in Tables 3a, 3b, and 3c and FIG. 2 were obtained by administering a pharmaceutical composition comprising the compound of Formula (Ia) to rodents in the formalin-induced pain duration at various doses according to Example 5. Specifically, the data in Tables 3a, 3b, and 3c and FIG. 2 were obtained by intraperitoneal (i.p.) administration of compositions containing different concentrations of the compound of Formula (Ia), a comparator composition containing recited amounts of the comparator compound (e.g., 150 mg/kg of the comparator compound of Formula (II) in Table 3a) and a control composition containing the vehicle (e.g., without the compound of Formula (Ia) or a comparator compound).
# The compound of Formula (Ia) and the comparator compounds of Formula (II) and Formula (III) were tested in the formalin-induced pain test reported by Dubuisson et al., Pain 1977 December; 4(2):161-74 (incorporated herein by reference in its entirety). Dubuisson et al. (1977) describe a method for assessing pain and analgesia in rats and cats. Briefly, dilute formalin (50 μL of 3% formalin) is injected into the plantar surface of the hind paw. […] The individual responsible for counting the pain behaviors in a particular study is blinded to the treatment groups.
# Rats were treated with the HCl salt of Compound (Ia) at various doses (3, 10, 30, and 50 mg/kg, IP) or with the vehicle (IP).
structure (smiles),measurement,setting,value
C[C@H]1CCCN1c1ncc(-c2cccc(NC(=O)Cn3cnc4c3c(=O)n(C)c(=O)n4C)n2)cn1 [Formula (Ia)],"airway hyper-responsiveness (PC400), relative to baseline",[1]; 5 mg/kg PO,100%
same,"airway hyper-responsiveness (PC400), relative to baseline",[1]; 10 mg/kg PO,100%
same,Duration of Pain Behavior,[2]; 3 mg/kg i.p.,82.3 s
same,Duration of Pain Behavior,[2]; 10 mg/kg i.p.,85.8 s
same,Duration of Pain Behavior,[2]; 30 mg/kg i.p.,49.8 s
same,Duration of Pain Behavior,[2]; 50 mg/kg i.p.,5.9 s
